Legend:
STEME (common chickweed) = assay: Pre-plant incorporated (PPI) herbicidal activity, cool season; type: in vivo, Stellaria media; details: for Percent inhibition STEME: weed, PPI application; for PPI activity GR80, STEME: pre-plant incorporated, lowest tested rate with 80% or greater inhibition, about 14 days
Description: (§1) In another set of tests, the pre-plant incorporated (PPI) activity of compounds of this invention was evaluated on the same species as for the pre-emergence tests described above. In the PPI tests the following procedure, designed to simulate PPI application, was used.
(§2) A pre-prepared topsoil mixture (described above) was placed in a pot and compacted to a depth of 1.0 to 1.25 cm from the top of the pot. Seeds of each of several monocotyledonous and dicotyledonous annual plant species were placed on top of the soil. A sufficient quantity of soil to cover the seeds and level fill the pot was weighed into an open container. A known amount of the test compound was dissolved or suspended in an organic solvent and applied by spraying to this cover soil. The cover soil was thoroughly mixed to distribute the test compound throughout the cover soil, and was then applied as a cover layer over the seeds. Untreated soil was used as a cover layer for control pots. After treatment the plants were placed in a greenhouse where they received 0.64 cm of overhead irrigation. All subsequent watering consisted of a light overhead mist and/or subirrigation as needed for germination and growth. Tables 9 and 10 below relate to warm season plant species which were placed after pre-emergence treatment in a greenhouse with a 30/21° C. day/night temperature regime. Tables 11 and 12 below relates to cool season plant species placed after pre-emergence treatment in a greenhouse or growth chamber with an 18/13° C. day/night temperature regime. Only the compounds of Examples 1, 6, 8, 11, 13 and 15-20 were included in PPI tests.
(§3) Approximately 14 days after planting and treating, the plants were observed and herbicidal efficacy recorded as percent inhibition by comparison with untreated plants.

[1] = test system: GALAP (catchweed bedstraw); assay: Pre-emergence herbicidal activity, cool season; type: in vivo, Galium aparine; details: lowest tested rate with 80% or greater inhibition; rates 300, 100, 30, 10 g/ha; about 14 days
How it was run: (§4)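 Seeds sown in sterilised fertilised topsoil received surface-applied compound in 50:50 acetone/water, typically at 300, 100, 30 and 10 g/ha, then greenhouse-grown at 30/21° C (warm-season species) or 18/13° C (cool-season species). Percent inhibition versus untreated plants was scored at about 14 days, giving GR80; an asterisk marks activity short of 80% at the top rate.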

ECHCG (barnyardgrass) = assay: Pre-emergence herbicidal activity, warm season; type: in vivo, Echinochloa crus-galli; details: GR80 = lowest tested rate (300, 100, 30, 10 g/ha) with 80% or greater inhibition; approx. 14 days after treating; 30/21° C.
How it was run: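 GR80 values derive from percent inhibition relative to untreated plants, read roughly 14 days after sowing and pre-emergence soil-surface treatment (compound in 50:50 acetone/water; rates typically 10, 30, 100, 300 g/ha). Warm-season weeds grew at 30/21° C day/night, cool-season ones at 18/13° C; an asterisk marks activity without reaching 80% at the highest rate.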

SETVI (green foxtail) [2] = assay: Pre-emergence herbicidal activity, cool season; type: in vivo, Setaria viridis; details: GR80 = lowest tested rate (300, 100, 30, 10 g/ha) with 80% or greater inhibition; approx. 14 days after treating; 18/13° C.
How it was run: as §4

POLCO (wild buckwheat) = assay: Pre-plant incorporated (PPI) herbicidal activity, cool season; type: in vivo, Polygonum convolvulus; details: for Percent inhibition POLCO: weed, PPI application; for PPI activity GR80, POLCO: pre-plant incorporated, lowest tested rate with 80% or greater inhibition, about 14 days
Description: as §1, §2, §3

DIGSA (large crabgrass) = assay: Pre-emergence herbicidal activity, warm season; type: in vivo, Digitaria sanguinalis; details: GR80 = lowest tested rate (300, 100, 30, 10 g/ha) with 80% or greater inhibition; approx. 14 days after treating; 30/21° C.
How it was run: (§5)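 Read-out: GR80, derived from percent growth inhibition relative to untreated plants at roughly 14 days after planting and treatment. Compounds went onto the surface of freshly seeded soil at 10–300 g/ha. Day/night regimes were 30/21 °C for millet and crabgrass, 18/13 °C for blackgrass and buckwheat.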

[3] = test system: PANMI (wild proso millet); assay: Pre-emergence herbicidal activity, warm season; type: in vivo, Panicum miliaceum; details: GR80 = lowest tested rate (300, 100, 30, 10 g/ha) with 80% or greater inhibition; approx. 14 days after treating; 30/21° C.
How it was run: as §5

SETVI (green foxtail) [4] = assay: Post-emergence herbicidal activity, cool season; type: in vivo, Setaria viridis; details: abraded plants sprayed at 300, 100, 30 and 10 g/ha; about 14 days after treatment
Description: (§6) In another set of tests, the post-emergence activity of compounds of this invention was evaluated on the cool season species listed above. The following procedure was used.
(§7) A pre-prepared topsoil mixture (described above) was placed in a pot and compacted to a depth of 1.0 to 1.25 cm from the top of the pot. Seeds of each of several monocotyledonous and dicotyledonous annual plant species were placed on top of the soil. The seeds were covered with a mixture of 50% topsoil and 50% Rediearth™ in sufficient quantity to level-fill the pots. The pots were then placed on a greenhouse bench and subirrigated as needed.
(§8) When plants growing from the seeds had emerged and reached a suitable growth stage for post-emergence treatment, typically 9 to 14 days after planting, above-ground parts of the plants were subjected to a pre-treatment involving abrasion to create greater opportunity for foliar uptake of subsequently applied compounds. Abrasion was performed using garnet 200w particles applied with a Sears Craftsman hand-held sandblaster operated at approximately 850 kPa (50 psig) pressure.
(§9) A known amount of each test compound dissolved or suspended in an appropriate organic solvent was diluted with a 50:50 mix of acetone and water and applied to the plants by spraying with a standard spray nozzle in a spray volume of […] at a spray pressure of 511 kPa (30 psig). Only the compounds of Examples 1, 8-15 and 17-22 were included in post-emergence tests. Application rates for these compounds were 300, 100, 30 and 10 g/ha. Control plants were abraded but not sprayed.
(§10) After treatment the plants were placed in a greenhouse with an 18/13° C. day/night temperature regime and were subsequently watered as needed for growth. Approximately 14 days after treatment, the plants were observed and herbicidal efficacy recorded as percent inhibition by comparison with control plants. GR80 values were assigned for each compound as described above for the pre-emergence tests.

[5] = test system: AGSST (creeping bentgrass); assay: Post-emergence herbicidal activity, cool season; type: in vivo, Agrostis stolonifera; details: abraded plants sprayed at 300, 100, 30 and 10 g/ha; about 14 days after treatment
Description: as §6, §7, §8, §9, §10

Row | SMILES | Percent inhibition STEME (STEME (common chickweed); 30 g/ha) [%] | Percent inhibition STEME (STEME (common chickweed); 100 g/ha) [%] | Percent inhibition STEME (STEME (common chickweed); 300 g/ha) [%] | Percent inhibition STEME (STEME (common chickweed); 900 g/ha) [%] | Pre-emergence activity GR80, GALAP [1] | Pre-emergence activity (GR80) ECHCG (ECHCG (barnyardgrass)) | Pre-emergence activity (GR80) SETVI (SETVI (green foxtail) [2]) [g/ha] | Percent inhibition POLCO (POLCO (wild buckwheat); 30 g/ha) [%] | Percent inhibition POLCO (POLCO (wild buckwheat); 100 g/ha) [%] | Percent inhibition POLCO (POLCO (wild buckwheat); 300 g/ha) [%] | Percent inhibition POLCO (POLCO (wild buckwheat); 900 g/ha) [%] | Pre-emergence activity (GR80) DIGSA (DIGSA (large crabgrass)) [g/ha] | Pre-emergence activity (GR80) PANMI [3] [g/ha] | Post-emergence activity GR80, SETVI (SETVI (green foxtail) [4]) | PPI activity GR80, STEME (STEME (common chickweed)) [g/ha] | Percent inhibition STEME (STEME (common chickweed); 10 g/ha) [%] | PPI activity GR80, POLCO (POLCO (wild buckwheat)) | Percent inhibition POLCO (POLCO (wild buckwheat); 10 g/ha) [%] | Post-emergence activity GR80, AGSST [5]
1 | CCN(CC)C(=O)n1cnc(S(=O)(=O)C(F)(F)C(F)(F)Br)n1 [Example 4] | 10 | 60 | 80 | 95 | 100 g/ha | 100 g/ha | 30 | 0 | 60 | 90 | 100 | 100 | 100 | – | – | – | – | – | –
2 | CCN(CC)C(=O)n1cnc(S(=O)(=O)C(F)(F)SCC(=O)OC)n1 [Example 11] | 0 | 0 | 0 | 30 | [empty] | * (activity observed, at least at highest rate, but <80% inhibition) | 300 | 0 | 0 | 0 | 30 | – | 300 | [empty] | 300 | 0 | * (activity observed, at least at highest rate, but <80% inhibition) | 0 | [empty]
3 | CCN(CC)C(=O)n1cnc(S(=O)(=O)C(F)(F)Cl)n1 [Example 3] | 60 | 80 | 100 | 100 | 100 g/ha | 30 g/ha | 100 | 60 | 70 | 90 | 100 | 100 | 30 | – | – | – | – | – | –
4 | CCN(CC)C(=O)n1cnc(S(=O)(=O)C(F)(F)C(=O)c2ccccc2)n1 [Example 6] | – | – | – | – | 100 g/ha | * (activity observed, at least at highest rate, but <80% inhibition) | 300 | – | – | – | – | 300 | 300 | – | 100 | – | 300 g/ha | – | –

From patent US6461997B1, “Triazole sulfones having herbicidal activity” (Monsanto Technology LLC, priority 1999, dated 2002)
